Data taken from PMC5146860, “Succinate production positively correlates with the affinity of the global transcription factor Cra for its effector FBP in Escherichia coli” (Biotechnology for Biofuels, 2016).

Legend:
Assay in all cases: isothermal titration calorimetry
[1] = molecular target: T1, Cra (catabolite repressor/activator; FruR) (Escherichia coli, UniProt P0ACP1, D148R/A248F/G274R); settings: 25 °C; 50 mM FBP injected into 15 μM protein (Fig. 5 legend prints 15 mM); effector-binding site; mutant of strain Tang1684
T1 construct: 2IKS is effector-free regulatory domain used for docking

[2] = molecular target: T2, Cra (catabolite repressor/activator; FruR) (Escherichia coli, UniProt P0ACP1, D101R/D148R/G274R); settings: 25 °C; 50 mM FBP injected into 15 μM protein (Fig. 5 legend prints 15 mM); effector-binding site; mutant of strain Tang1683
T2 construct: 2IKS is effector-free regulatory domain used for docking

[3] = molecular target: T3, Cra (catabolite repressor/activator; FruR) (Escherichia coli, UniProt P0ACP1, N73Y/D148R/G274R); settings: 25 °C; 50 mM FBP injected into 15 μM protein (Fig. 5 legend prints 15 mM); effector-binding site; mutant of strain Tang1688
T3 construct: 2IKS is effector-free regulatory domain used for docking

[4] = molecular target: T4, Cra (catabolite repressor/activator; FruR) (Escherichia coli, UniProt P0ACP1); settings: 25 °C; 50 mM FBP injected into 15 μM protein (Fig. 5 legend prints 15 mM); effector-binding site
T4 construct: 2IKS is effector-free regulatory domain used for docking

Kd [1]: 0.7283 ± 0.0038 µM
Kd [2]: 0.154 ± 0.0043 µM
Kd [3]: 0.8091 ± 0.0046 µM
Kd [4]: 1.36 ± 0.0062 µM
SMILES: O=P(O)(O)OC[C@H]1OC(O)(COP(=O)(O)O)[C@@H](O)[C@@H]1O (stereo partly shown) [fructose-1,6-bisphosphate]
